Assay results as given in article PMC10508264, “Exploring the antioxidant, antimicrobial, cytotoxic and biothermodynamic properties of novel morpholine derivative bioactive Mn(II), Co(II) and Ni(II) complexes – combined experimental and theoretical measurements towards DNA/BSA/SARS-CoV-2 3CL^Pro” (RSC Medicinal Chemistry, 2023).

What was measured:
CT-DNA [1] = assay: DNA thermal denaturation / biothermodynamic properties; type: binding; settings: for Tm of DNA–substance adduct: 1:1 ratio (50 μM), free CT-DNA 68 °C; for Binding constant Kr @ 298 K: 25 °C (298 K); for ΔTm: adduct vs CT-DNA alone
CT-DNA [2] = assay: DNA binding by viscometric (hydrodynamic) technique
Procedure: The hydrodynamic properties were measured using an Ostwald viscometer with the help of a thermostat (25 ± 0.1 °C). The specific viscosity of DNA was also measured in the presence and absence of the test samples.[13,30]
Generally, when the major/minor groove binding, electrostatic, partial, and non-classical interaction modes are involved between chemical substances and DNA base pairs, the final DNA relative viscosity remains unchanged or undergoes a very negligible change due to reducing the contour length of DNA. When the intercalation binding modes are involved between a chemical substance and DNA base pairs via π–π stacking interactions and hydrophobic forces, an increase in relative viscosity is noted due to a rise in the contour length of DNA. Moreover, for the purpose of observing alterations in the CT-DNA helical structure, the viscosity findings for CT-DNA, various concentrations of chemical substances present, and EtBr were recorded. It was also noted that the absolute viscosity rose consistently along with the incremental concentration of each substance at the fixed DNA concentration. As a result of the strong binding mode of intercalation, the contour length of the double-helix DNA rises.[72] The obtained results are also compared with those of the classical intercalator (EB). The affinity interaction and their slope values were observed from the relative specific viscosity (η/η0)^1/3 plotted as a straight line contrasting [compound]/[DNA] and absolute specific viscosity of DNA in the presence or absence of chemical substances was evaluated using eqn (11) (Table 3). In the experiment, it was clearly noted that the slope values for all samples increased due to the rising binding affinity. The evaluated slopes were in the following sequence: (EB) 1.215 > (2) 0.860 > (3) 0.801 > (1) 0.662 > (HL) 0.490 (Fig. S21 ^† and Table 3). […] Due to the existence of 2,2′-bipyridine and the morpholine-fused aromatic planar systems, compounds can interact with DNA robustly via intercalation. The outcomes agreed with the observed outcomes of electronic absorption spectral characteristics.
11 [drawing 21] where η and η0 represent the specific viscosity of DNA in the presence of the complex and the specific viscosity of DNA alone, t0, tDNA and tcomplex represent the average flow time of the Tris–HCl buffer solution, the average flow time of the DNA alone solution, and the average flow time of DNA interacted with the samples, respectively. Error limit ± 2.5% (P < 0.025). […]
2.2.4. Assessment of DNA affinity by hydrodynamic technique
Hydrodynamic properties were performed using an Ostwald viscometer with the help of a thermostat (25 ± 0.1 °C). The experiment was performed of all samples, including ethidium bromide at various concentrations (20, 40, 60, 80, 100 µM) and each test compound was mixed with the deoxyribonucleic acid solution (100 µM) in the Ostwald viscometer. With a help of digital stopwatch, average flow time was gauged three times for each addition, and the specific viscosity of deoxyribonucleic acid was also measured in the presence and absence of test samples. […]
Also, the emission spectral titration for all compounds was also carried out at a fixed concentration (25 μM) of BSA with an incremental concentration of substances (0–25 µM)

EB–DNA = EB–DNA competitive fluorescence emission titration; type: binding; settings: for KSV (SV method I), DNA / Kass (SV method II), DNA / Kq (SV method I), DNA: EB–DNA; for Kq (SV method I), DNA: τ0 = 10^−8 s; for Kapp (apparent binding constant): KEB = 10^7 M^−1 at 50 μM EB; for LWB method KLB: Lineweaver–Burk
Procedure: Titrations were performed for all tested compounds (1–200 μM) with pre-incubated EB-bound DNA and the intensity variations between 510 nm and 610 nm were carefully monitored in the presence and absence of DNA (200 μM) during the initial emission and excitation by EB.[31]
Fluorescence emission spectral titration is an efficient approach to evaluating the binding properties of DNA/BSA biomolecules. In general, the fluorescence of EB is quite weak in aqueous solution, but when it is bound to DNA, the fluorescence intensity rises. However, it is a well-known imperative intercalator and is more supportive in distinguishing the binding strength of non-fluorescence test substances. Also, the fluorescence emission spectra of the EB–DNA adduct were examined at 610 nm in the absence and presence of rising quantities of each test compound. When the complex concentration (0–240 μM) rises, the fluorescence intensity of the EB-bound DNA complex diminishes owing to the displacement of EB from CT-DNA. A notable reduction in the fluorescence emission intensity at 610 nm is observed (Fig. S26 ^† and Table 4). The photoelectron shift from DNA's guanine base to the excited states may be the cause of the frequency quenching in the emission of the test substance by DNA. […] Therefore, the competitive binding experiment can make use of EB as a fluorescent probe. […] This is further evidence that complexes (1–3) strongly bind intercalatively with DNA. The observed results agree well with the data from electronic absorption spectral measurements. Additionally, the experiment was extended to examine the binding properties between the test substance and BSA. BSA mostly contains three amino acid residues (tyrosine, tryptophan, and phenylalanine), which give it its inherent fluorescence. […] These two residues also have minimal quenching effects. Tryptophan in BSA fluoresces mostly because of a residue that is trapped inside a hydrophobic cavity. Therefore, it is crucial to model potential binding interactions with the metal complexes. […] The fluorescence intensity also reduces while the test substances (1–3) are steadily blended with the BSA solution, proving that complexes (1–3) interact with BSA via altering the protein's secondary structure, which also leads to an alteration in the tryptophan environment of BSA (Fig. S27 ^†). Furthermore, BSA structural similarities share 76% sequence identity with human serum albumin (HSA), the most prevalent protein in blood plasma that transports ions and proteins to cells and tissues. HSA is able to readily crystallize under the trivalent cations, but BSA has no ready crystallizing property. However, they consist of parallel physicochemical properties to each other.[74,75] Additionally, the Stern–Volmer eqn (12) and (13) were employed to analyze the data (Fig. S28 ^† and Table 4). Additionally, the kq values for DNA and BSA binding were acquired in the range of 1.1636–2.8863 × 10^12 and 2.6390–7.0774 × 10^12 mol^−1 s^−1, respectively. They are also much greater than the collision quenching constant value (2.0 × 10^10 mol^−1 s^−1). Therefore, it is assumed that the static quenching process was brought on by adduct construction between the test compounds and BSA rather than a dynamic collision. However, fluorescence spectroscopy is generally plagued by the inner filter effect (IFE), disturbing spectral analysis. The energizing ray is attenuated due to the highly concentrated solution sample. As a result, strong fluorescence is only seen on surfaces facing the excitation beam.

[3] = Hydroxyl radical scavenging assay; type: biochemical; settings: for % Inhibition, hydroxyl radical: 230 nm
[4] = tested on: Salmonella enterica serovar typhi; assay: Agar disc diffusion, strain C; type: cell-based; settings: for Diameter of clear zone inhibition: control 6 mm

SMILES	Tm of DNA–substance adduct (CT-DNA [1]) [°C]	Binding constant (CT-DNA [1]; 10 °C (283 K)) [M⁻¹]	Binding constant Kr @ 298 K (CT-DNA [1]) [M⁻¹]	Binding constant (CT-DNA [1]; 40 °C (313 K)) [M⁻¹]	ΔTm (CT-DNA [1]) [°C]	Slope of (η/η0)^1/3 vs [compound]/[DNA] (CT-DNA [2])	Relative specific viscosity (η/η0)^1/3 (CT-DNA [2]; [complex]/[DNA] = 0.2)	Relative specific viscosity (η/η0)^1/3 (CT-DNA [2]; [complex]/[DNA] = 0.4)	Relative specific viscosity (η/η0)^1/3 (CT-DNA [2]; [complex]/[DNA] = 0.6)	Relative specific viscosity (η/η0)^1/3 (CT-DNA [2]; [complex]/[DNA] = 0.8)	Relative specific viscosity (η/η0)^1/3 (CT-DNA [2]; [complex]/[DNA] = 1.0)	Scatchard analysis KSA (EB–DNA) [M⁻¹]	KSV (SV method I), DNA (EB–DNA) [M⁻¹]	Kass (SV method II), DNA (EB–DNA) [M⁻¹]	Kq (SV method I), DNA (EB–DNA) [M⁻¹ s⁻¹]	Kapp (apparent binding constant) (EB–DNA) [M⁻¹]	LWB method KLB (EB–DNA) [M⁻¹]	% Inhibition, hydroxyl radical ([3]; 40 µM) [%]	% Inhibition, hydroxyl radical ([3]; 80 µM) [%]	% Inhibition, hydroxyl radical ([3]; 120 µM) [%]	further results
[Mn+2].[O-]c1ccccc1N=Cc1ccc(N2CCOCC2)cc1.[O-]c1ccccc1N=Cc1ccc(N2CCOCC2)cc1.c1ccc(-c2ccccn2)nc1 [(1)]	76	72350	18195	7732.1	8	0.662	0.66	0.78	0.88	1.02	1.12	30094	16755	11954	1.6755e+12	5.926e+06	7149	10.08	17.89	28.56	% Inhibition, hydroxyl radical ([3]; 160 µM): 34.04%; % Inhibition, hydroxyl radical ([3]; 200 µM): 44.92%; % Inhibition, hydroxyl radical ([3]; 240 µM): 56.03%; Inhibition% [4]: 40%; Diameter of clear zone inhibition [4]: 10 mm
[Co+2].[O-]c1ccccc1N=Cc1ccc(N2CCOCC2)cc1.[O-]c1ccccc1N=Cc1ccc(N2CCOCC2)cc1.c1ccc(-c2ccccn2)nc1 [(2)]	78	98820	18806	8043.3	10	0.860	0.77	0.88	1.05	1.18	1.48	33185	28863	32903	2.8863e+12	8.349e+06	13497	08.02	15.24	26.23	IC50 [3]: 200 µM; % Inhibition, hydroxyl radical ([3]; 160 µM): 36.41%; % Inhibition, hydroxyl radical ([3]; 200 µM): 46.17%; % Inhibition, hydroxyl radical ([3]; 240 µM): 56.85%; Inhibition% [4]: 40%; Diameter of clear zone inhibition [4]: 10 mm
[Ni+2].[O-]c1ccccc1N=Cc1ccc(N2CCOCC2)cc1.[O-]c1ccccc1N=Cc1ccc(N2CCOCC2)cc1.c1ccc(-c2ccccn2)nc1 [(3)]	77	91140	18207	7879.7	9	0.801	0.71	0.86	0.92	1.11	1.31	32363	16879	10350	1.6879e+12	7.34e+06	7786	07.67	15.86	26.12	% Inhibition, hydroxyl radical ([3]; 160 µM): 35.43%; % Inhibition, hydroxyl radical ([3]; 200 µM): 45.56%; % Inhibition, hydroxyl radical ([3]; 240 µM): 55.75%; Inhibition% [4]: 45%; Diameter of clear zone inhibition [4]: 11 mm
Oc1ccccc1N=Cc1ccc(N2CCOCC2)cc1 [(HL), 2-(4-morpholinobenzylideneamino)phenol]	74	52575	15169	6067.4	6	0.490	0.61	0.67	0.75	0.85	1.01	19093	11636	9606	1.1636e+12	5.829e+06	6985	07.26	14.43	25.52	% Inhibition, hydroxyl radical ([3]; 160 µM): 33.86%; % Inhibition, hydroxyl radical ([3]; 200 µM): 40.73%; % Inhibition, hydroxyl radical ([3]; 240 µM): 50.68%; Inhibition% [4]: 45%; Diameter of clear zone inhibition [4]: 11 mm
